Laboratory results published in patent US6358885B1, “Substituted phenylheterocyclic herbicides” (Mississippi State University, priority 1992, dated 2002).

Columns and labels:
Assay in all cases: Test B preemergence/postemergence greenhouse plant response rating 0 to 10
[1] = system: cotton; type: in vivo, Gossypium hirsutum; details: for Plant response rating, Cotton: 0 to 10 scale
How it was run: (§1)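 Postemergence treatment of plants two to eighteen cm tall ran alongside preemergence treatment of planted seed, each using compound in a non-phytotoxic solvent.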

[2] = system: sorghum; type: in vivo, Sorghum bicolor; details: for Plant response rating, Sorghum: 0 to 10 scale
How it was run: as §1

[3] = system: blackgrass; type: in vivo, Alopecurus myosuroides; details: for Plant response rating, Blackgrass: 0 to 10 scale
How it was run: as §1

[4] = system: chickweed; type: in vivo, Stellaria media; details: for Plant response rating, Chickweed: 0 to 10 scale
How it was run: as §1

[5] = system: soybean; type: in vivo, Glycine max; details: for Plant response rating, Soybean: 0 to 10 scale
How it was run: as §1

[6] = system: wheat; type: in vivo, Triticum aestivum; details: for Plant response rating, Wheat: 0 to 10 scale
How it was run: as §1

[7] = system: lambsquarters; type: in vivo, Chenopodium album; details: for Plant response rating, Lambsquarter: 0 to 10 scale
How it was run: as §1

[8] = system: crabgrass; type: in vivo, Digitaria spp.; details: for Plant response rating, Crabgrass: 0 to 10 scale
How it was run: as §1

[9] = system: sugar beet; type: in vivo, Beta vulgaris; details: for Plant response rating, Sugar beet: 0 to 10 scale
How it was run: as §1

[10] = system: morningglory; type: in vivo, Ipomoea hederacea; details: for Plant response rating, Morningglory: 0 to 10 scale
How it was run: as §1

[11] = system: cocklebur; type: in vivo, Xanthium pensylvanicum; details: for Plant response rating, Cocklebur: 0 to 10 scale
How it was run: as §1

[12] = system: rape; type: in vivo, Brassica napus; details: for Plant response rating, Rape: 0 to 10 scale
How it was run: as §1

[13] = system: cheatgrass; type: in vivo, Bromus secalinus; details: for Plant response rating, Cheatgrass: 0 to 10 scale
How it was run: as §1

[14] = system: wild oat; type: in vivo, Avena fatua; details: for Plant response rating, Wild oat: 0 to 10 scale
How it was run: as §1

[15] = system: bedstraw; type: in vivo, Galium aparine; details: for Plant response rating, Bedstraw: 0 to 10 scale
How it was run: as §1

[16] = system: rice; type: in vivo, Oryza sativa; details: for Plant response rating, Rice: 0 to 10 scale
How it was run: as §1

[17] = system: giant foxtail; type: in vivo, Setaria faberii; details: for Plant response rating, Giant foxtail: 0 to 10 scale
How it was run: as §1

[18] = system: velvetleaf; type: in vivo, Abutilon theophrasti; details: for Plant response rating, Velvetleaf: 0 to 10 scale
How it was run: as §1

[19] = system: wild buckwheat; type: in vivo, Polygonum convolvulus; details: for Plant response rating, Wild buckwheat: 0 to 10 scale
How it was run: as §1

[20] = system: corn; type: in vivo, Zea mays; details: for Plant response rating, Corn: 0 to 10 scale
How it was run: as §1

[21] = system: barnyardgrass; type: in vivo, Echinochloa crus-galli; details: for Plant response rating, Barnyardgrass: 0 to 10 scale
How it was run: as §1

[22] = system: barley; type: in vivo, Hordeum vulgare; details: for Plant response rating, Barley: 0 to 10 scale
How it was run: as §1

[23] = system: purple nutsedge; type: in vivo, Cyperus rotundus; details: for Plant response rating, Nutsedge: 0 to 10 scale
How it was run: as §1

Oc1cc(-c2nn3c(c2Br)CCCC3)c(F)cc1Cl [Compound 81]
2: Plant response rating, Blackgrass ([3]; POSTEMERGENCE, Rate 50 g/ha) | Plant response rating, Chickweed ([4]; POSTEMERGENCE, Rate 50 g/ha) | Plant response rating (0 to 10 scale), Wheat ([6]; PREEMERGENCE, Rate 200 g/ha) | Plant response rating, Wild oat ([14]; POSTEMERGENCE, Rate 50 g/ha) | Plant response rating (0 to 10 scale), Giant foxtail ([17]; PREEMERGENCE, Rate 200 g/ha) | Plant response rating, Corn ([20]; POSTEMERGENCE, Rate 50 g/ha)
3: Plant response rating, Sorghum ([2]; POSTEMERGENCE, Rate 50 g/ha) | Plant response rating, Sorghum ([2]; Rate 200 g/ha, POSTEMERGENCE) | Plant response rating (0 to 10 scale), Blackgrass ([3]; PREEMERGENCE, Rate 200 g/ha) | Plant response rating, Chickweed ([4]; Rate 200 g/ha, POSTEMERGENCE) | Plant response rating, Wheat ([6]; POSTEMERGENCE, Rate 50 g/ha) | Plant response rating, Rape ([12]; POSTEMERGENCE, Rate 50 g/ha) | Plant response rating, Cheatgrass ([13]; POSTEMERGENCE, Rate 50 g/ha) | Plant response rating (0 to 10 scale), Wild oat ([14]; PREEMERGENCE, Rate 200 g/ha) | Plant response rating, Wild oat ([14]; Rate 200 g/ha, POSTEMERGENCE) | Plant response rating, Velvetleaf ([18]; PREEMERGENCE, Rate 50 g/ha) | Plant response rating, Corn ([20]; Rate 200 g/ha, POSTEMERGENCE) | Plant response rating, Barley ([22]; POSTEMERGENCE, Rate 50 g/ha) | Plant response rating, Barley ([22]; Rate 200 g/ha, POSTEMERGENCE) | Plant response rating, Nutsedge ([23]; Rate 200 g/ha, POSTEMERGENCE)
10: Plant response rating, Cotton ([1]; POSTEMERGENCE, Rate 50 g/ha) | Plant response rating, Cotton ([1]; Rate 200 g/ha, POSTEMERGENCE) | Plant response rating, Lambsquarter ([7]; POSTEMERGENCE, Rate 50 g/ha) | Plant response rating (0 to 10 scale), Lambsquarter ([7]; PREEMERGENCE, Rate 200 g/ha) | Plant response rating, Lambsquarter ([7]; Rate 200 g/ha, POSTEMERGENCE) | Plant response rating, Sugar beet ([9]; POSTEMERGENCE, Rate 50 g/ha) | Plant response rating, Sugar beet ([9]; Rate 200 g/ha, POSTEMERGENCE) | Plant response rating, Morningglory ([10]; Rate 200 g/ha, POSTEMERGENCE) | Plant response rating, Cocklebur ([11]; Rate 200 g/ha, POSTEMERGENCE) | Plant response rating, Bedstraw ([15]; Rate 200 g/ha, POSTEMERGENCE) | Plant response rating (0 to 10 scale), Velvetleaf ([18]; PREEMERGENCE, Rate 200 g/ha) | Plant response rating, Velvetleaf ([18]; Rate 200 g/ha, POSTEMERGENCE) | Plant response rating, Wild buckwheat ([19]; POSTEMERGENCE, Rate 50 g/ha) | Plant response rating (0 to 10 scale), Wild buckwheat ([19]; PREEMERGENCE, Rate 200 g/ha) | Plant response rating, Wild buckwheat ([19]; Rate 200 g/ha, POSTEMERGENCE)
6: Plant response rating, Soybean ([5]; POSTEMERGENCE, Rate 50 g/ha) | Plant response rating, Crabgrass ([8]; Rate 200 g/ha, POSTEMERGENCE) | Plant response rating, Rice ([16]; POSTEMERGENCE, Rate 50 g/ha) | Plant response rating, Rice ([16]; Rate 200 g/ha, POSTEMERGENCE)
0: Plant response rating, Cotton ([1]; PREEMERGENCE, Rate 50 g/ha) | Plant response rating (0 to 10 scale), Cotton ([1]; PREEMERGENCE, Rate 200 g/ha) | Plant response rating, Sorghum ([2]; PREEMERGENCE, Rate 50 g/ha) | Plant response rating (0 to 10 scale), Sorghum ([2]; PREEMERGENCE, Rate 200 g/ha) | Plant response rating, Blackgrass ([3]; PREEMERGENCE, Rate 50 g/ha) | Plant response rating, Chickweed ([4]; PREEMERGENCE, Rate 50 g/ha) | Plant response rating, Soybean ([5]; PREEMERGENCE, Rate 50 g/ha) | Plant response rating (0 to 10 scale), Soybean ([5]; PREEMERGENCE, Rate 200 g/ha) | Plant response rating, Wheat ([6]; PREEMERGENCE, Rate 50 g/ha) | Plant response rating, Crabgrass ([8]; PREEMERGENCE, Rate 50 g/ha) | Plant response rating (0 to 10 scale), Crabgrass ([8]; PREEMERGENCE, Rate 200 g/ha) | Plant response rating, Sugar beet ([9]; PREEMERGENCE, Rate 50 g/ha) | Plant response rating, Morningglory ([10]; PREEMERGENCE, Rate 50 g/ha) | Plant response rating (0 to 10 scale), Morningglory ([10]; PREEMERGENCE, Rate 200 g/ha) | Plant response rating, Cocklebur ([11]; PREEMERGENCE, Rate 50 g/ha) | Plant response rating (0 to 10 scale), Cocklebur ([11]; PREEMERGENCE, Rate 200 g/ha) | Plant response rating, Rape ([12]; PREEMERGENCE, Rate 50 g/ha) | Plant response rating, Cheatgrass ([13]; PREEMERGENCE, Rate 50 g/ha) | Plant response rating, Wild oat ([14]; PREEMERGENCE, Rate 50 g/ha) | Plant response rating, Bedstraw ([15]; PREEMERGENCE, Rate 50 g/ha) | Plant response rating, Rice ([16]; PREEMERGENCE, Rate 50 g/ha) | Plant response rating (0 to 10 scale), Rice ([16]; PREEMERGENCE, Rate 200 g/ha) | Plant response rating, Giant foxtail ([17]; PREEMERGENCE, Rate 50 g/ha) | Plant response rating, Wild buckwheat ([19]; PREEMERGENCE, Rate 50 g/ha) | Plant response rating, Corn ([20]; PREEMERGENCE, Rate 50 g/ha) | Plant response rating (0 to 10 scale), Corn ([20]; PREEMERGENCE, Rate 200 g/ha) | Plant response rating, Barnyardgrass ([21]; PREEMERGENCE, Rate 50 g/ha) | Plant response rating (0 to 10 scale), Barnyardgrass ([21]; PREEMERGENCE, Rate 200 g/ha) | Plant response rating, Barley ([22]; PREEMERGENCE, Rate 50 g/ha) | Plant response rating (0 to 10 scale), Barley ([22]; PREEMERGENCE, Rate 200 g/ha) | Plant response rating, Nutsedge ([23]; PREEMERGENCE, Rate 50 g/ha) | Plant response rating (0 to 10 scale), Nutsedge ([23]; PREEMERGENCE, Rate 200 g/ha)
9: Plant response rating (0 to 10 scale), Chickweed ([4]; PREEMERGENCE, Rate 200 g/ha) | Plant response rating, Lambsquarter ([7]; PREEMERGENCE, Rate 50 g/ha) | Plant response rating (0 to 10 scale), Sugar beet ([9]; PREEMERGENCE, Rate 200 g/ha) | Plant response rating, Morningglory ([10]; POSTEMERGENCE, Rate 50 g/ha) | Plant response rating, Bedstraw ([15]; POSTEMERGENCE, Rate 50 g/ha) | Plant response rating (0 to 10 scale), Bedstraw ([15]; PREEMERGENCE, Rate 200 g/ha) | Plant response rating, Velvetleaf ([18]; POSTEMERGENCE, Rate 50 g/ha)
7: Plant response rating, Soybean ([5]; Rate 200 g/ha, POSTEMERGENCE) | Plant response rating (0 to 10 scale), Rape ([12]; PREEMERGENCE, Rate 200 g/ha) | Plant response rating, Rape ([12]; Rate 200 g/ha, POSTEMERGENCE) | Plant response rating, Barnyardgrass ([21]; Rate 200 g/ha, POSTEMERGENCE)
8: Plant response rating, Cocklebur ([11]; POSTEMERGENCE, Rate 50 g/ha) | Plant response rating, Giant foxtail ([17]; Rate 200 g/ha, POSTEMERGENCE) | Plant response rating, Barnyardgrass ([21]; POSTEMERGENCE, Rate 50 g/ha)
4: Plant response rating, Blackgrass ([3]; Rate 200 g/ha, POSTEMERGENCE) | Plant response rating, Wheat ([6]; Rate 200 g/ha, POSTEMERGENCE) | Plant response rating, Crabgrass ([8]; POSTEMERGENCE, Rate 50 g/ha) | Plant response rating (0 to 10 scale), Cheatgrass ([13]; PREEMERGENCE, Rate 200 g/ha) | Plant response rating, Cheatgrass ([13]; Rate 200 g/ha, POSTEMERGENCE) | Plant response rating, Giant foxtail ([17]; POSTEMERGENCE, Rate 50 g/ha)
